Legend:
Cavia porcellus = organism: Cavia porcellus; assay: Relative binding affinity to guinea pig progesterone receptor
[1] = molecular target: T1, Progesterone receptor (Homo sapiens) (UniProt P06401)
T1 sequence (whole entry): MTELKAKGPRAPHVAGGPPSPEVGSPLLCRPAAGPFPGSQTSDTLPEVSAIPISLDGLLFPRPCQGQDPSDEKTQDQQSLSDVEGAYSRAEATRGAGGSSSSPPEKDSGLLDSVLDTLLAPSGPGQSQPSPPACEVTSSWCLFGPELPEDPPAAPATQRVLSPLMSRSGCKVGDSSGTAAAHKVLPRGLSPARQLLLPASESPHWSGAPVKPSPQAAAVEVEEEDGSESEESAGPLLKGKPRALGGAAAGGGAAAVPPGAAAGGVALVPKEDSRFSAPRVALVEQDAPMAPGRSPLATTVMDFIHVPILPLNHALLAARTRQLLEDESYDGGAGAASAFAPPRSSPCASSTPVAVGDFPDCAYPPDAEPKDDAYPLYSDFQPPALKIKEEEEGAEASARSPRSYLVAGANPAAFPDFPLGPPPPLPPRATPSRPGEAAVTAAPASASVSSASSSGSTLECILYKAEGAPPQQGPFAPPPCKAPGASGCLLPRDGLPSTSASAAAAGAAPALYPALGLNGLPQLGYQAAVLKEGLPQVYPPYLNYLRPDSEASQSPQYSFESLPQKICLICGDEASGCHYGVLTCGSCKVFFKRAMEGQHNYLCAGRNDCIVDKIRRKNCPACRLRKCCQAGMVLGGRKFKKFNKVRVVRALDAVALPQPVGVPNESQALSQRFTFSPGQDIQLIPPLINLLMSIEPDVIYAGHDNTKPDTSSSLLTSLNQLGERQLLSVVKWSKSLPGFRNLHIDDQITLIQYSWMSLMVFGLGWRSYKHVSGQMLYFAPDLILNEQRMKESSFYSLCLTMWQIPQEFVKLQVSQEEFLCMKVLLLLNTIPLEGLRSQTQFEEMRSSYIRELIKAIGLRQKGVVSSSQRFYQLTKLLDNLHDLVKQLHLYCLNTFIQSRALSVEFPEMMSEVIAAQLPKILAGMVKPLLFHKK

[2] = molecular target: T2, Progesterone receptor (Oryctolagus cuniculus) (UniProt P06186); assay: Relative binding affinity to rabbit progesterone receptor
T2 sequence (whole entry): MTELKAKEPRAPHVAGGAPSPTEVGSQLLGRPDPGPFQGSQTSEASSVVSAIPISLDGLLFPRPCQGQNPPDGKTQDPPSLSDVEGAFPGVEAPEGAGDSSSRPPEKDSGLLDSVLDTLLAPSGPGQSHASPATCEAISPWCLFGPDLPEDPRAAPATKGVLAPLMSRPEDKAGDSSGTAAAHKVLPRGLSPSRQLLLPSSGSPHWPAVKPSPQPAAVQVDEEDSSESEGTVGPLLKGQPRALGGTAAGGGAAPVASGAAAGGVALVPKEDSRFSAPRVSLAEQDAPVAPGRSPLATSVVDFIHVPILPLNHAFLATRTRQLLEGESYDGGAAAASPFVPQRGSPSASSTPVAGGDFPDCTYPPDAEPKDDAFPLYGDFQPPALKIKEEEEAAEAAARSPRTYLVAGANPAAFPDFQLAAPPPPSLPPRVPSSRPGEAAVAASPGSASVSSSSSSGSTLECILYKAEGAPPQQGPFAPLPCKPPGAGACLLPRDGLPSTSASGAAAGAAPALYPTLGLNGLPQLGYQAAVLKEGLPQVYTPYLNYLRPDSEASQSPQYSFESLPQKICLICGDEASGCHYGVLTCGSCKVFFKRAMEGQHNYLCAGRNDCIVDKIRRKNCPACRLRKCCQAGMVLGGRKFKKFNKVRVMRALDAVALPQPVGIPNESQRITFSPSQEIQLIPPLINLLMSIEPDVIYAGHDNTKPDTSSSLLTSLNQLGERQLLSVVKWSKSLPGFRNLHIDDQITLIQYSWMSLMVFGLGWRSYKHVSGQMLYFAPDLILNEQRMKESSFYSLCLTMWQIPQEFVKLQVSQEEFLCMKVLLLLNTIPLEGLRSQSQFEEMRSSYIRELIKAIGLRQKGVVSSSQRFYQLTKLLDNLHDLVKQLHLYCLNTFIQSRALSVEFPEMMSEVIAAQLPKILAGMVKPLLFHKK

[3] = molecular target: T3, Progesterone receptor (Ovis aries) (UniProt Q28590); assay: Relative binding affinity to sheep progesterone receptor
T3 sequence (whole entry): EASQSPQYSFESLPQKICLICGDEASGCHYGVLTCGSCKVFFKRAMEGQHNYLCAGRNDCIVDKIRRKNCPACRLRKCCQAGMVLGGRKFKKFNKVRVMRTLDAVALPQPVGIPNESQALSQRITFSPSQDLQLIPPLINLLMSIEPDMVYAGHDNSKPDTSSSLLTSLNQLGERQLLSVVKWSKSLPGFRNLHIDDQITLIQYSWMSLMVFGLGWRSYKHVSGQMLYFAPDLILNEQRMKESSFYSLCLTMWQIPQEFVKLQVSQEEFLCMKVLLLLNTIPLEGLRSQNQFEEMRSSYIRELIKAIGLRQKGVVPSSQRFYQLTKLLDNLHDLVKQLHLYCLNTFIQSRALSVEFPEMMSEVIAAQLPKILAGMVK

Structure (SMILES) | log(RBA) (Cavia porcellus) | log(RBA) [1] | log(RBA) [2] | log(RBA) [3]
C#C[C@]1(O)CC[C@H]2[C@@H]3CCC4=CCCC[C@@H]4[C@H]3CC[C@@]21C | -0.52 | 0.7 | 1.11 | 0.602
C#C[C@]1(O)CC[C@H]2[C@@H]3CCC4=CC(=O)CCC4=C3C=C[C@@]21C | – | – | 1.3 | –
CC(=O)O[C@]1(C(C)=O)CC[C@H]2[C@@H]3C=C(C)C4=CC(=O)CC[C@]4(C)[C@H]3CC[C@@]21C | -0.3 | 1.94 | 2 | 1.51
C#C[C@]1(O)CC[C@H]2[C@@H]3CCC4=CC(=O)CC[C@@H]4[C@H]3CC[C@@]21CC | 1.43 | 2.22 | 2.62 | 2
CC[C@@H]1C[C@H]2[C@@H]3CCC4=CC(=O)CC[C@]4(C)[C@H]3CC[C@]2(C)[C@H]1C(C)=O | 1.08 | 1.98 | 1.98 | 1.87
CC(=O)[C@@]1(C)CC[C@H]2[C@@H]3CCC4=CC(=O)CCC4=C3C=C[C@@]21C | – | – | 1.74 | –
CC(=O)[C@H]1CC[C@H]2[C@@H]3CCC4=CC(=O)CC[C@]4(C)[C@H]3C(=O)C[C@]12C | 0 | 0 | 0.301 | -0.097
C#C[C@]1(O)CC[C@H]2[C@H]3[C@H](CC[C@@]21C)[C@H]1CCCC=C1C[C@H]3C | -0.7 | 0.3 | 0.954 | 0.301
C#C[C@]1(O)CC[C@H]2[C@@H]3CC[C@@H]4C[C@H](O)CC[C@@H]4[C@H]3CC[C@@]21C | -2 | -1 | -1 | -2
C#C[C@]1(O)CC[C@H]2[C@@H]3CCC4=CC(=O)CC[C@@H]4[C@H]3CC[C@@]21CCC | – | – | 1.54 | –
CC(=O)[C@H]1CC[C@H]2[C@@H]3CCC4=CC(=O)CCC4=C3CC[C@]12C | – | – | 2 | –
CC(=O)[C@H]1CC[C@H]2[C@@H]3[C@H](C)CC4=CC(=O)CC[C@]4(C)[C@H]3CC[C@]12C | 1.67 | 1.43 | 1.61 | 1.32
CC(=O)[C@H]1CC[C@H]2[C@@H]3CCC4=CC(=O)CC[C@@H]4[C@H]3CC[C@]12C | 2.06 | 2.11 | 2.41 | 2.13
CC(=O)[C@H]1CC[C@H]2[C@@H]3CCC4=CC(=O)CCC4=C3C=C[C@]12C | – | – | 1.3 | –
C#C[C@]1(O)CC[C@H]2[C@@H]3CCC4=C(CCC(=O)C4)[C@H]3CC[C@@]21C | 3 | 1.34 | 1.56 | 0.845
C#C[C@]1(O)CC[C@H]2[C@@H]3CC[C@@H]4C[C@@H](O)CC[C@@H]4[C@H]3CC[C@@]21C | -1.09 | -0.52 | -1 | -0.7
CCCCCC(=O)O[C@]1(C(C)=O)CC[C@H]2[C@@H]3CCC4=CC(=O)CC[C@]4(C)[C@H]3CC[C@@]21C | – | 1.88 | 1.88 | –
CC(=O)[C@@]1(C)CC[C@H]2[C@@H]3CCC4=CC(=O)CC[C@@H]4[C@H]3CC[C@@]21C | – | – | 2.7 | –
C[C@]12CC[C@H]3[C@@H](CCC4=CC(=O)CC[C@@]43C)[C@@H]1CC[C@@H]2O | 0 | – | -0.22 | 0
C#C[C@]1(O)CC[C@H]2[C@@H]3CCC4=CC(=O)CCC4=C3C=C[C@@]21CCC | – | – | 0.7 | –
CC(=O)[C@H]1CC[C@H]2[C@@H]3CC=C4C[C@@H](O)CC[C@]4(C)[C@H]3CC[C@]12C | -0.52 | -0.69 | -0.301 | –
C[C@]12CCC(=O)C[C@@H]1CC[C@@H]1[C@@H]2CC[C@]2(C)[C@@H](O)CC[C@@H]12 | – | 0.3 | – | 0
CC(=O)[C@@]1(C)CC[C@H]2[C@@H]3CCC4=CC(=O)CCC4=C3CC[C@@]21C | – | – | 2.3 | –
CCC(=O)[C@@]1(C)CC[C@H]2[C@@H]3CCC4=CC(=O)CCC4=C3CC[C@@]21C | – | – | 2.48 | –
C#C[C@]1(O)CC[C@H]2[C@@H]3CCC4=CC(=O)CCC4=C3C=C[C@@]21CC | – | – | 1.3 | –

Reference: ChEMBL document CHEMBL3272135, “Quantitative relationships between steroid structure and binding to putative progesterone receptors” (J Med Chem, 1977)
